Laboratory results reported in patent publication US20240344145A1, “PHARMACOGENOMICS SCORE TO MAKE DECISIONS ON THERAPY AUGMENTATION IN AML” (University of Florida Research Foundation, Incorporated, priority 2021, published 2024).

System: pediatric AML patients
Experiment: AML02 multicenter clinical trial, LDAC vs HDAC induction arms: MRD1, EFS and OS overall and by ACS10 score
Assay type: in vivo, human
Design: 3-year EFS / 4-year OS / 5-year OS / 4-year EFS / 5-year EFS / 3-year OS: unit not given here
Conditions: for 3-year EFS / 3-year OS / 4-year EFS / 4-year OS / 5-year EFS / 5-year OS / EFS HR for each one-point increase in ACS10: risk-adjusted Cox model; for Event-free Survival 5 years / Overall Survival 5 years: AML02 cohort; for 5 year EFS / five-year OS: low ACS10 score (≤0) patients; for 5 year EFS / five-year OS / EFS HR, low-ACS10 vs high-ACS10 score / OS HR, low-ACS10 vs high-ACS10 score / EFS HR for each one-point increase in ACS10: AML02; for MRDIND1 Negative (<0.1%) / MRDIND1 Positive (>=0.1%): number of patients per arm, after induction 1, AML02 cohort; for EFS HR, low-ACS10 vs high-ACS10 score / OS HR, low-ACS10 vs high-ACS10 score / EFS HR for each one-point increase in ACS10: within arm
Procedure: One hundred and sixty-six pediatric AML patients treated under the multicenter AML02 clinical trial protocol were included in the study. Details of study design and clinical outcome have been described elsewhere. Briefly, patients with de novo AML were randomized to receive either high (3 g/m^2, given every 12 h on days 1, 3, and 5; this condition is designated “HDAC”) or low dose (100 mg/m^2 given every 12 h on days 1-10; this condition is designated “LDAC”) cytarabine along with daunorubicin (50 mg/m^2 on days 2, 4 and 6) and etoposide (100 mg/m^2 on days 2-6) as a first course of chemotherapy with subsequent treatment tailored to response and risk classification. For initial risk assignment, patients with cytogenetic translocations comprisingt [8;21] (e.g., translocation between chromosome 8 and 21), inv (16), ort [9;11] were classified as low-risk. Patients with features such as deletion of chromosome 7 (−7), presence of FLT3-ITD mutation (FLT-ITD), cytogenetic translocation comprisingt [6;9], megakaryoblastic leukemia (AMKL), treatment-related AML, or AML arising from MDS were classified as high-risk AML. Patients lacking any of the low or high-risk group features were provisionally classified as standard risk AML. Patient risk classifications were updated on the basis of minimal residual disease evaluations. Clinical endpoints used in this evaluation were defined as follows: i) Minimal residual disease after induction 1 (“MRD1”) (patients were defined as MRD positive if they had ≥1 leukemic cell per 1000 mononuclear bone marrow cells (≥0.1%); ii) Complete remission defined as trilineage hematopoietic recovery with less than 5% blasts in the marrow; iii) Event-free survival (“EFS”) defined as the time from study enrollment to induction failure, relapse, secondary malignancy, death, or study withdrawal for any reason, with event-free patients censored on the date of last follow-up; and iv) Overall survival (“OS”) defined as the time from study enrollment to death, with living patients censored on the date of last follow-up. St. Jude Institutional Review Board approved the study, and informed consent was obtained from parents/guardians and consents/assents from the individuals.
The association of MRD1, EFS, and OS was evaluated with ACS10 scores in the AML02 discovery cohort and the AAML0531 validation cohort. The Kaplan-Meier method was used to estimate the EFS and OS probabilities for well-defined groups of patients. Cox regression models were used to associate ACS10 with EFS and OS and used logistic regression models to associate ACS10 with MRD1. The Wilcoxon rank-sum test and Kruskal-Wallis test were used to compare medians of numeric variables across groups. Chi-square tests and Fisher's exact test were used to evaluate the association among pairs of categorical variables. All p-values are two-sided. All statistical analyses were performed using R software (www.r-project.org).
The multicenter AML02 clinical trial randomly assigned subjects to receive low dose ara-C (LDAC: 100 mg/m^2; n=91 patients) or high dose ara-C(HDAC: 3 g/m^2; n=75 patients) in combination with daunorubicin and etoposide as the first course of chemotherapy as described above in patient cohort section. Thus, the association of SNPs with outcome within each arm separately was also explored (Table 5).
Given patients in AML02 cohort were randomized to receive low or augmented high dose of ara-C, this unique opportunity was leveraged to evaluate performance of ACS10 score within the different ara-C dose treatment arms (of note LDAC and HDAC arms had similar distribution of patients across, disease characteristics, risk group, cytogenetics, race, gender etc. Table 3). […]

[1] = patients with ACS10 score of +5, risk-adjusted Cox model
[2] = patients with ACS10 score of −5, risk-adjusted Cox model

Nc1ccn([C@@H]2O[C@H](CO)[C@@H](O)[C@@H]2O)c(=O)n1 [HDAC, cytarabine]
3-year EFS (ACS10 score 0): 0.6070 | 3-year OS (ACS10 score 0): 0.6946 | 4-year EFS (ACS10 score 0): 0.5942 | 4-year OS (ACS10 score 0): 0.6875 | 5-year EFS (ACS10 score 0): 0.5872 | 5-year OS (ACS10 score 0): 0.6875 | 3-year EFS (ACS10 score 1): 0.6247 | 3-year OS (ACS10 score 1): 0.7260 | 4-year EFS (ACS10 score 1): 0.6122 | 4-year OS (ACS10 score 1): 0.7194 | 5-year EFS (ACS10 score 1): 0.6053 | 5-year OS (ACS10 score 1): 0.7194 | 3-year EFS (ACS10 score 2): 0.6418 | 3-year OS (ACS10 score 2): 0.7550 | 4-year EFS (ACS10 score 2): 0.6297 | 4-year OS (ACS10 score 2): 0.7489 | 5-year EFS (ACS10 score 2): 0.6231 | 5-year OS (ACS10 score 2): 0.7489 | 3-year EFS (ACS10 score 3): 0.6585 | 3-year OS (ACS10 score 3): 0.7816 | 4-year EFS (ACS10 score 3): 0.6468 | 4-year OS (ACS10 score 3): 0.7760 | 5-year EFS (ACS10 score 3): 0.6403 | 5-year OS (ACS10 score 3): 0.7760 | 3-year EFS (ACS10 score 4): 0.6747 | 3-year OS (ACS10 score 4): 0.8058 | 4-year EFS (ACS10 score 4): 0.6633 | 4-year OS (ACS10 score 4): 0.8007 | 5-year EFS (ACS10 score 4): 0.6570 | 5-year OS (ACS10 score 4): 0.8007 | 3-year EFS (ACS10 score 5): 0.6903 | 3-year OS (ACS10 score 5): 0.8278 | 4-year EFS (ACS10 score 5): 0.6793 | 4-year OS (ACS10 score 5): 0.8232 | 5-year EFS (ACS10 score 5): 0.6732 | 5-year OS (ACS10 score 5): 0.8232 | 3-year EFS (ACS10 score −1): 0.5889 | 3-year OS (ACS10 score −1): 0.6609 | 4-year EFS (ACS10 score −1): 0.5758 | 4-year OS (ACS10 score −1): 0.6533 | 5-year EFS (ACS10 score −1): 0.5686 | 5-year OS (ACS10 score −1): 0.6533 | 3-year EFS (ACS10 score −2): 0.5703 | 3-year OS (ACS10 score −2): 0.6251 | 4-year EFS (ACS10 score −2): 0.5569 | 4-year OS (ACS10 score −2): 0.6170 | 5-year EFS (ACS10 score −2): 0.5496 | 5-year OS (ACS10 score −2): 0.6170 | 3-year EFS (ACS10 score −3): 0.5513 | 3-year OS (ACS10 score −3): 0.5873 | 4-year EFS (ACS10 score −3): 0.5377 | 4-year OS (ACS10 score −3): 0.5788 | 5-year EFS (ACS10 score −3): 0.5302 | 5-year OS (ACS10 score −3): 0.5788 | 3-year EFS (ACS10 score −5): 0.5123 | 3-year OS (ACS10 score −5): 0.5073 | 4-year EFS (ACS10 score −5): 0.4983 | 4-year OS (ACS10 score −5): 0.4983 | 5-year EFS (ACS10 score −5): 0.4906 | 5-year OS (ACS10 score −5): 0.4983 | Event-free Survival 5 years (High ACS10 score group): 0.631 ± 0.074 | Overall Survival 5 years (High ACS10 score group): 0.743 ± 0.067 | Event-free Survival 5 years (Low ACS10 score group): 0.548 ± 0.089 | Overall Survival 5 years (Low ACS10 score group): 0.634 ± 0.088 | 5 year EFS: 55% | five-year OS: 63% | MRDIND1 Negative (<0.1%): 43^+ | MRDIND1 Positive (>=0.1%): 28^+ | 3-year EFS, model estimate [1]: 69.0% | 3-year OS, model estimate [1]: 82.8% | 3-year EFS, model estimate [2]: 51.2% | 3-year OS, model estimate [2]: 50.7% | Event-free Survival 5 years (probability, whole arm): 0.597 ± 0.0569 | Overall Survival 5 years (probability, whole arm): 0.699 ± 0.0537 | EFS HR, low-ACS10 vs high-ACS10 score: 1.28 | OS HR, low-ACS10 vs high-ACS10 score: 1.56 | EFS HR for each one-point increase in ACS10: 0.92

Nc1ccn([C@@H]2O[C@H](CO)[C@@H](O)[C@@H]2O)c(=O)n1 [LDAC, cytarabine]
3-year EFS (ACS10 score 0): 0.5527 | 3-year OS (ACS10 score 0): 0.7030 | 4-year EFS (ACS10 score 0): 0.5391 | 4-year OS (ACS10 score 0): 0.6960 | 5-year EFS (ACS10 score 0): 0.5316 | 5-year OS (ACS10 score 0): 0.6960 | 3-year EFS (ACS10 score 1): 0.6541 | 3-year OS (ACS10 score 1): 0.7604 | 4-year EFS (ACS10 score 1): 0.6423 | 4-year OS (ACS10 score 1): 0.7544 | 5-year EFS (ACS10 score 1): 0.6357 | 5-year OS (ACS10 score 1): 0.7544 | 3-year EFS (ACS10 score 2): 0.7393 | 3-year OS (ACS10 score 2): 0.8089 | 4-year EFS (ACS10 score 2): 0.7296 | 4-year OS (ACS10 score 2): 0.8039 | 5-year EFS (ACS10 score 2): 0.7242 | 5-year OS (ACS10 score 2): 0.8039 | 3-year EFS (ACS10 score 3): 0.8073 | 3-year OS (ACS10 score 3): 0.8489 | 4-year EFS (ACS10 score 3): 0.7997 | 4-year OS (ACS10 score 3): 0.8448 | 5-year EFS (ACS10 score 3): 0.7955 | 5-year OS (ACS10 score 3): 0.8448 | 3-year EFS (ACS10 score 4): 0.8596 | 3-year OS (ACS10 score 4): 0.8814 | 4-year EFS (ACS10 score 4): 0.8539 | 4-year OS (ACS10 score 4): 0.8781 | 5-year EFS (ACS10 score 4): 0.8507 | 5-year OS (ACS10 score 4): 0.8781 | 3-year EFS (ACS10 score 5): 0.8988 | 3-year OS (ACS10 score 5): 0.9074 | 4-year EFS (ACS10 score 5): 0.8946 | 4-year OS (ACS10 score 5): 0.9048 | 5-year EFS (ACS10 score 5): 0.8922 | 5-year OS (ACS10 score 5): 0.9048 | 3-year EFS (ACS10 score −1): 0.4399 | 3-year OS (ACS10 score −1): 0.6369 | 4-year EFS (ACS10 score −1): 0.4255 | 4-year OS (ACS10 score −1): 0.6289 | 5-year EFS (ACS10 score −1): 0.4176 | 5-year OS (ACS10 score −1): 0.6289 | 3-year EFS (ACS10 score −2): 0.3251 | 3-year OS (ACS10 score −2): 0.5632 | 4-year EFS (ACS10 score −2): 0.3112 | 4-year OS (ACS10 score −2): 0.5546 | 5-year EFS (ACS10 score −2): 0.3037 | 5-year OS (ACS10 score −2): 0.5546 | 3-year EFS (ACS10 score −3): 0.2202 | 3-year OS (ACS10 score −3): 0.4846 | 4-year EFS (ACS10 score −3): 0.2083 | 4-year OS (ACS10 score −3): 0.4756 | 5-year EFS (ACS10 score −3): 0.2020 | 5-year OS (ACS10 score −3): 0.4756 | 3-year EFS (ACS10 score −5): 0.0743 | 3-year OS (ACS10 score −5): 0.3280 | 4-year EFS (ACS10 score −5): 0.0683 | 4-year OS (ACS10 score −5): 0.3197 | 5-year EFS (ACS10 score −5): 0.0652 | 5-year OS (ACS10 score −5): 0.3197 | Event-free Survival 5 years (High ACS10 score group): 0.712 ± 0.063 | Overall Survival 5 years (High ACS10 score group): 0.829 ± 0.052 | Event-free Survival 5 years (Low ACS10 score group): 0.421 ± 0.08 | Overall Survival 5 years (Low ACS10 score group): 0.579 ± 0.08 | 5 year EFS: 42% | five-year OS: 57% | MRDIND1 Negative (<0.1%): 49^+ | MRDIND1 Positive (>=0.1%): 38^+ | 3-year EFS, model estimate [1]: 89.9% | 3-year OS, model estimate [1]: 90.7% | 3-year EFS, model estimate [2]: 7.4% | 3-year OS, model estimate [2]: 32.8% | Event-free Survival 5 years (probability, whole arm): 0.591 ± 0.0518 | Overall Survival 5 years (probability, whole arm): 0.724 ± 0.047 | EFS HR, low-ACS10 vs high-ACS10 score: 2.81 | OS HR, low-ACS10 vs high-ACS10 score: 2.98 | EFS HR for each one-point increase in ACS10: 0.70
